biological target: Epidermal growth factor receptor (Homo sapiens, UniProt P00533); experiment: Inhibition of partially purified EGFR tyrosine kinase from human A431 cells
Sequence (P00533 whole entry): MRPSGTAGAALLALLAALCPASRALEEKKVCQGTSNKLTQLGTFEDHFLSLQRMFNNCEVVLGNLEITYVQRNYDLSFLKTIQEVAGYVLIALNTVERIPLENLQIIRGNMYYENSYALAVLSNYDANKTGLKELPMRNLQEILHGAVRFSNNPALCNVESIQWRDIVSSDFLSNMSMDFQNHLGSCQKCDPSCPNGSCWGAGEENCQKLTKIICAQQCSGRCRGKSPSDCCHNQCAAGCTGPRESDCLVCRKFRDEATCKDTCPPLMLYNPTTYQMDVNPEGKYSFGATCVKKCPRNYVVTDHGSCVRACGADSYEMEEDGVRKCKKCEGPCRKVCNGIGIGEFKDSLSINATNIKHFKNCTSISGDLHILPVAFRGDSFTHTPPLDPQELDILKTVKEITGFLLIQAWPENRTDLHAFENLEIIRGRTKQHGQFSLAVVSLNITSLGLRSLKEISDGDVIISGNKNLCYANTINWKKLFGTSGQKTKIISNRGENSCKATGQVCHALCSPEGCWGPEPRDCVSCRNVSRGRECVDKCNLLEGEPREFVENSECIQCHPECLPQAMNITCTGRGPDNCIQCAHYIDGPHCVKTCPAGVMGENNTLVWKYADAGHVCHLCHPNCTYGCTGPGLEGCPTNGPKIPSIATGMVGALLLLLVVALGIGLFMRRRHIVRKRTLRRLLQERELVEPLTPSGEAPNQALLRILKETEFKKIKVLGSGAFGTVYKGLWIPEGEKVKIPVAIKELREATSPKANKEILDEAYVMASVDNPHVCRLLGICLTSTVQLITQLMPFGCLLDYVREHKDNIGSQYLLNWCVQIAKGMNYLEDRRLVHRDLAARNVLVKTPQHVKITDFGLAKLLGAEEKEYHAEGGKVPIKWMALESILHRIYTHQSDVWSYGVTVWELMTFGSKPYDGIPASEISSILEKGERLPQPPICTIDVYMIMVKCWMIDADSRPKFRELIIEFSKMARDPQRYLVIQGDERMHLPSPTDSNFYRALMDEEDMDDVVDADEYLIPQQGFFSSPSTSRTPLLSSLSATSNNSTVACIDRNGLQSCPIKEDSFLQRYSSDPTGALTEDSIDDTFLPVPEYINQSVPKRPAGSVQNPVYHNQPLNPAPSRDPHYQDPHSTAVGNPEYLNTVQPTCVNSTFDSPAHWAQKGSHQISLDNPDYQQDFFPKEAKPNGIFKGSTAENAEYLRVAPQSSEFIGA

Compound | IC50
COc1cc2ncnc(C#Cc3ccccc3)c2cc1OC | 5600 nM
COc1cc2ncnc(C#CCCc3ccccc3)c2cc1OC | 14 nM
COc1cc2ncnc(C#CCOc3ccccc3)c2cc1OC | 15 nM
COc1cc2ncnc(C#CC(C)(C)N(C)c3ccccc3)c2cc1OC | 80 nM
COc1cc2ncnc(/C=C/CCc3ccccc3)c2cc1OC | 4 nM
COc1cc2ncnc(C#Cc3ccccc3-c3ccccc3)c2cc1OC | 26 nM
CCOc1cc2ncnc(/C=C/c3ccccc3)c2cc1OCC | 15 nM
CCOc1cc2ncnc(/C=C/CCCc3ccccc3)c2cc1OCC | 140 nM
CCOc1cc2ncnc(C#Cc3[nH]ccc3-c3ccccc3)c2cc1OCC | 10 nM
CCOc1cc2ncnc(C#Cc3c[nH]nc3-c3ccc(F)cc3)c2cc1OCC | 1.8 nM
CCOc1cc2ncnc(C#C[C@](C)(Cc3ccccc3)N3CCC(C(=O)O)CC3)c2cc1OCC | 662 nM
COc1cc2ncnc(C#C[C@@](C)(Cc3ccccc3)N3CCC(C(=O)O)CC3)c2cc1OC | 33 nM
CCN(CC)[C@@](C)(C#Cc1ncnc2cc(OC)c(OC)cc12)Cc1ccccc1 | 3 nM
CCN(CC)[C@@](C)(C#Cc1ncnc2cc(OC)c(OC)cc12)c1ccccc1 | 7300 nM
CCN(CC)[C@@](C)(C#Cc1ncnc2cc(OC)c(OC)cc12)CCc1ccccc1 | 1200 nM
CCN(CC)[C@@](C)(C#Cc1ncnc2cc(OC)c(OC)cc12)Cc1ccncc1 | 200 nM
CCN(CC)[C@@](C)(C#Cc1ncnc2cc(OC)c(OC)cc12)CC1CCCCC1 | 1100 nM
CCN(CC)[C@@](C)(CCc1ncnc2cc(OC)c(OC)cc12)Cc1ccccc1 | 130 nM
CCOc1cc2ncnc(/C=C/CCc3ccccc3)c2cc1OCC | 5 nM
CCOc1cc2ncnc(C#Cc3nccn3-c3ccccc3)c2cc1OCC | 12 nM
CCOc1cc2ncnc(C#C[C@@](C)(Cc3ccccc3)N3CCC(C(=O)O)CC3)c2cc1OCC | 4.2 nM
COc1cc2ncnc(C#CC(C)(C)Cc3ccccc3)c2cc1OC | 13 nM
CCOc1cc2ncnc(C#CC(C)(Cc3ccccc3)N3CCC(C(=O)O)CC3)c2cc1OCC (racemic) | 11.7 nM

Reference: ChEMBL document CHEMBL1140492, “Synthesis and inhibitory activity of 4-alkynyl and 4-alkenylquinazolines: identification of new scaffolds for potent EGFR tyrosine kinase inhibitors” (Bioorg Med Chem Lett, 2007)
